Test results published in publication PMC12040169 (PLOS Biology, 2025).

Assay: in vitro
Conditions: human, hela cells, % viability

With O=C1CCC(=O)N1CCOc1nccnc1OC1CCN(CCc2ccc3ccccc3c2)CC1 [CBK084358] the viability at 28.5 h, 10 µM was 99.4%.

Work on O=C1CCC(=O)N1CCOc1nccnc1OC1CCN(CCc2ccccn2)CC1 [CBK084360] yielded a viability at 28.5 h, 10 µM of 99.5%.

O=[N+]([O-])c1ccc(CN2CCC(Oc3cncc(OCC4COc5ccccc5O4)n3)C2)cc1 (stereo not shown) [CBK084369] showed a viability at 28.5 h, 10 µM of 99.3%.

Fc1ccc(CCN2CCC(Oc3cncc(OCC4COc5ccccc5O4)n3)C2)cc1 (stereo not shown) [CBK084383] gave a viability at 28.5 h, 10 µM of 99.8%.

For CCOC(=O)CN1CCC(Oc2cncc(Oc3ccc(OC)c(OC)c3)n2)C1 (stereo not shown) [CBK084405], the viability at 28.5 h, 10 µM was 91.3%.

For COc1ccc(Oc2cncc(OC3CCN(CC4CCCCC4)C3)n2)cc1OC (stereo not shown) [CBK084413], the viability at 28.5 h, 10 µM was 96.4%.

Work on CCN(CC)C(=O)CN1CCC(Oc2cncc(OCc3ccc(Cl)c(Cl)c3)n2)C1 (stereo not shown) [CBK084431] yielded a viability at 28.5 h, 10 µM of 98.2%.

CCOC(=O)CN1CCC(Oc2cncc(OCc3ccc(Cl)c(Cl)c3)n2)C1 (stereo not shown) [CBK084432] gave a viability at 28.5 h, 10 µM of 91.7%.

Work on Clc1ccc(CN2CCC(Oc3cncc(OCc4cccnc4)n3)C2)cc1 (stereo not shown) [CBK084451] yielded a viability at 28.5 h, 10 µM of 104%.

In the case of O=[N+]([O-])c1ccc(CN2CCC(Oc3cncc(OCc4cccnc4)n3)C2)cc1 (stereo not shown) [CBK084456], the viability at 28.5 h, 10 µM is reported as 91.6%.

With c1cncc(COc2cncc(OC3CCN(Cc4ccc5c(c4)OCO5)C3)n2)c1 (stereo not shown) [CBK084458] the viability at 28.5 h, 10 µM was 88.9%.

Compound CCOC(=O)CN1CCC(Oc2cncc(OCc3cccnc3)n2)C1 (stereo not shown) [CBK084462] has a viability at 28.5 h, 10 µM of 99.4%.

Work on c1cncc(COc2cncc(OC3CCN(CCN4CCOCC4)C3)n2)c1 (stereo not shown) [CBK084463] yielded a viability at 28.5 h, 10 µM of 99.7%.

For OCCCN1CCC(Oc2cncc(OCc3cccnc3)n2)C1 (stereo not shown) [CBK084465], the viability at 28.5 h, 10 µM was 91.7%.

Work on N#CCCCN1CCC(Oc2cncc(OCc3cccnc3)n2)C1 (stereo not shown) [CBK084466] yielded a viability at 28.5 h, 10 µM of 105%.

Compound Fc1ccc(CCN2CCC(Oc3cncc(OCc4cccnc4)n3)C2)cc1 (stereo not shown) [CBK084469] has a viability at 28.5 h, 10 µM of 97.8%.

In the case of Fc1ccccc1CN1CCC(Oc2cncc(OCCN3CCOCC3)n2)C1 (stereo not shown) [CBK084479], the viability at 28.5 h, 10 µM is reported as 94.9%.

Clc1ccc(CN2CCC(Oc3cncc(OCCN4CCOCC4)n3)C2)cc1 (stereo not shown) [CBK084480] gave a viability at 28.5 h, 10 µM of 90.9%.

Work on O=[N+]([O-])c1ccc(CN2CCC(Oc3cncc(OCCN4CCOCC4)n3)C2)cc1 (stereo not shown) [CBK084485] yielded a viability at 28.5 h, 10 µM of 95.2%.

Work on c1cc2c(cc1CN1CCC(Oc3cncc(OCCN4CCOCC4)n3)C1)OCO2 (stereo not shown) [CBK084487] yielded a viability at 28.5 h, 10 µM of 96.7%.

Work on NC(=O)CN1CCC(Oc2cncc(OCCN3CCOCC3)n2)C1 (stereo not shown) [CBK084488] yielded a viability at 28.5 h, 10 µM of 111%.

For Cc1cccc(C)c1NC(=O)CN1CCC(Oc2cncc(OCCN3CCOCC3)n2)C1 (stereo not shown) [CBK084489], the viability at 28.5 h, 10 µM was 95.5%.

For CCN(CC)C(=O)CN1CCC(Oc2cncc(OCCN3CCOCC3)n2)C1 (stereo not shown) [CBK084490], the viability at 28.5 h, 10 µM was 101%.

CCOC(=O)CN1CCC(Oc2cncc(OCCN3CCOCC3)n2)C1 (stereo not shown) [CBK084491] showed a viability at 28.5 h, 10 µM of 89.3%.

With c1ccc(OCCN2CCC(Oc3cncc(OCCN4CCOCC4)n3)C2)cc1 (stereo not shown) [CBK084499] the viability at 28.5 h, 10 µM was 113%.

For c1ccc2c(CCN3CCC(Oc4cncc(OCCN5CCOCC5)n4)C3)c[nH]c2c1 (stereo not shown) [CBK084500], the viability at 28.5 h, 10 µM was 100%.

c1ccc2cc(CCN3CCC(Oc4cncc(OCCN5CCOCC5)n4)C3)ccc2c1 (stereo not shown) [CBK084503] showed a viability at 28.5 h, 10 µM of 92.7%.

Nc1ncc(-c2ccc(C(=O)O)cc2)nc1-c1ccc(C(=O)N2CCOCC2)cc1 [CBK084518] showed a viability at 28.5 h, 10 µM of 90.8%.

In the case of CC(C)(C)c1ccc(-c2cnc(N)c(-c3ccc(C(=O)N4CCOCC4)cc3)n2)cc1 [CBK084543A], the viability at 28.5 h, 10 µM is reported as 98.2%.

For COc1ccc(Br)c(C(=O)Nc2[nH]nc(O)c2Cc2c(Cl)cccc2Cl)c1 [CBK084554], the viability at 28.5 h, 10 µM was 111%.

Compound CC[C@@H]1CCCCN1C(=O)c1ccc(Cl)c(C)c1 [CBK084565] has a viability at 28.5 h, 10 µM of 91.6%.

CCOC(=O)N1CCC2(CC1)Oc1ccc(Cl)cc1O2 [CBK084590] gave a viability at 28.5 h, 10 µM (bulk resorufin, single well) of 94.2%.

Work on COc1ccc2[nH]c3c(c2c1)CCN(CC(C)O)C31CCN(CCOc2ccccc2)C1 (stereo not shown) [CBK084612T] yielded a viability at 28.5 h, 10 µM of 73%.

COc1ccc([C@H](NC(=O)C2CCN(C(=O)OCc3ccccc3)CC2)c2ccccc2C)cn1 [CBK084639] showed a viability at 28.5 h, 10 µM of 92.9%.
